Here are results for eleven compounds from US6870028B1 (priority 1995, dated 2005).

Test [1] concerns human ovarian carcinoma HEY. The test is described as follows: in vitro cytotoxicity versus human ovarian carcinoma HEY. The test is classed as cell-based. As to the method: (§1) Coupling of the peptide A-B to amino acid moiety of C (5) was carried out in a similar way. [drawing 25] [drawing 26] [drawing 27] Testing of Compounds • 1. The cytotoxicity of compounds described herein have been tested as described in J. Immunol. Methods, 65, 55-63, 1983 and the results are provided in Table 4 below, wherein P388 refers to in vitro test versus murine leukaemia P388, U373 refers to in vitro human glioblastoma/astrocytoma U373, HEY refers to in vitro human ovarian carcinoma HEY, MCF7 refers to in vitro human breast cancer MCF7. • 2.

Another test has as its system human breast cancer MCF7. The test is described as follows: in vitro cytotoxicity versus human breast cancer MCF7. The class given is cell-based. The method, then: as §1
The next test deals with murine leukaemia P388. The experiment in a line: in vitro cytotoxicity versus murine leukaemia P388. The class given is cell-based. The conditions noted are these: Mus musculus. As to the method:
as §1

Test [2] has as its system human glioblastoma/astrocytoma U373. The test is described as follows: in vitro cytotoxicity versus human glioblastoma/astrocytoma U373. The test is classed as cell-based. Conditions: for IC50: U373 MG. As to the method: as §1
In test [3] the test system is human mammary carcinoma MCF7 cells. The test is described as follows: antimitotic activity, percentage of mitotic cells in chromosome spreads. The conditions noted are these: for IC50: Homo sapiens; for IC50 / antimitotic activity, in words: 20 h treatment. The class given is cell-based. As to the method:
• 3. Compounds described herein were comparatively tested for their antimitotic activity against human mammary carcinoma MCF7 cells.
MCF7 cells were grown as a monolayer in RPMI supplemented with 15% fetal calf serum and antibiotics at 37° C. in humidified 10% CO2. All compounds were dissolved in dimethyl sulfoxide except for vinblastine (a known drug) which was a 1 mg/ml solution in physiological saline. Exponentially growing MCF7 cells were treated with different drug concentrations for 20 h, prepared for chromosome spreads, and the percentage of mitotic cells determined by fluorescence microscopy. Hemiasterlin, Hemiasterlin A and modified compounds were very potent antimitotic agents, with IC50 values of 0.3 nM and 3 nM respectively.

For the next test, the system named is MCF7 cells. The test is described as follows: morphology of mitotic spindles by indirect immunofluorescence (β-tubulin antibody, bisbenzimide). The class given is cell-based, human. An excerpt: The effect of Hemiasterlin and Hemiasterlin A on the morphology of their mitotic spindles was examined by indirect immunofluorescence using a monoclonal antibody to β-tubulin and the distribution of their chromosomes using the fluorescent DNA dye bisbenzimide.

The subject of a further test is P388 leukaemia cells. The experiment in a line: in vivo P388 leukaemia model in mice.
Where [4] appears, read: read-out: IC50 Values cell mitosis.

In brackets after ≈: the same amount, converted by molar mass. Where two headings read alike, the source gives them in different places.

`CN[C@H](C(=O)N[C@H](C(=O)N(C)[C@H](/C=C(\C)C(=O)N[C@@H](CCCNC(=N)N)C(=O)O)C(C)C)C(C)(C)C)C(C)(C)c1c[nH]c2ccccc12`: the concentration for half-maximal inhibition (IC50) in test [1] is 0.19 µg/mL (≈ 284 nM); in the test on human breast cancer MCF7 it was 6.8 µg/mL (≈ 10200 nM); in the test with murine leukaemia P388, 7.3 ng/mL (≈ 10.9 nM); in test [2], 0.27 µg/mL (≈ 404 nM).

As to `CN[C@H](C(=O)N[C@H](C(=O)N(C)[C@H](/C=C(\C)C(=O)OC)C(C)C)C(C)(C)C)C(C)(C)c1cn(C)c2ccccc12`, the IC50 in test [3] (setting [4]) was 0.216 ng/mL; with human breast cancer MCF7, 0.0054 µg/mL (≈ 9.99 nM).

As for `CN[C@H](C(=O)N[C@H](C(=O)N(C)[C@H](CC(C)C(=O)O)C(C)C)C(C)(C)C)C(C)(C)c1cn(C)c2ccccc12` (stereo partly shown), in test [3] (setting [4]), the IC50 was 1.06 ng/mL.

`CCOC(=O)/C(C)=C/[C@H](C(C)C)N(C)C(=O)[C@@H](NC(=O)[C@@H](NC)C(C)(C)c1cn(C)c2ccccc12)C(C)C` gave an IC50 in the test with human breast cancer MCF7 of 0.1 µg/mL (≈ 185 nM).

As for `C=C1C[C@H](C)C(=O)N[C@@H](C)C(=O)N(C)[C@H](Cc2ccc(O)c(I)c2)C(=O)N[C@@H](C)C(=O)O[C@@H](C)C[C@@H](C)C1=O` [Compound 1, Geodiamolide G], the “IC50 Values HEY” value in test [1] is 8.6 µg/mL (≈ 13100 nM). Also, in test [2], the “IC50 Values U373” value amounted to 7.7 µg/mL (≈ 11700 nM).

Consider `CN[C@H](C(=O)N[C@H](C(=O)N(C)[C@H](/C=C(\C)C(=O)O)C(C)C)C(C)(C)C)C(C)(C)c1c[nH]c2ccccc12` [Compound 2, Hemiasterlin A], for which the IC50 in test [1] worked out at 0.0076 µg/mL (≈ 14.8 nM); in test [3] (setting [4]), 1.02 ng/mL; in test [3] (read-out: antimitotic IC50), 3 nM; in the test with human breast cancer MCF7, 0.00154 µg/mL (≈ 3 nM); in the test with murine leukaemia P388 it was 0.00171 ng/mL (≈ 0.00334 nM); in test [2], 0.0015 µg/mL (≈ 2.93 nM). The “lowest concentration causing maximal mitotic arrest” value in test [3] came to 10 nM. In test [3], the “antimitotic activity, in words” value is “more potent than Taxol, Vinblastine and Nocodazole”. For the same compound, the mitotic spindle morphology entry with MCF7 cells (at 2 nM) is reported as “no completely normal spindles were seen”. Besides, in the test on MCF7 cells (at 10 nM), the effect on microtubules result was “caused microtubule depolymerisation in mitotic cells”.

Turning to `CN[C@H](C(=O)N[C@H](C(=O)N(C)[C@H](/C=C(\C)C(=O)O)C(C)C)C(C)C)C(C)(C)c1c[nH]c2ccccc12` [Compound 3, Hemiasterlin B], the IC50 in test [1] is 0.016 µg/mL (≈ 32.1 nM); in test [3] (setting [4]), 9.96 ng/mL; in the test with human breast cancer MCF7, 0.015 µg/mL (≈ 30.1 nM); in the test on murine leukaemia P388, 7 ng/mL (≈ 14 nM).

As for `CN[C@H](C(=O)N[C@H](C(=O)N(C)[C@H](/C=C(\C)C(=O)O)C(C)C)C(C)(C)C)C(C)(C)c1cn(C)c2ccccc12` [Compound A, Hemiasterlin], the IC50 in test [1] was found to be 0.0014 µg/mL (≈ 2.66 nM); in test [3] (setting [4]) it was 0.158 ng/mL; in test [3] (read-out: antimitotic IC50) it was 0.3 nM; in the test with human breast cancer MCF7, 0.000158 µg/mL (≈ 0.3 nM); in the test on murine leukaemia P388 it was 0.0457 ng/mL (≈ 0.0868 nM); in test [2] it was 0.012 µg/mL (≈ 22.8 nM). Moreover, the “in vivo tests, result in words” value in the test with P388 leukaemia cells (in vivo tests per NIH Publication No. 84-2635) is recorded as “cytotoxic”. For the same compound, the long term survivors result with P388 leukaemia cells (mice injected with 1×10^6 P388 leukaemia cells, 5 daily doses of 0.45 μg) is reported as “several long term survivors”. The “%TC” value in the test on P388 leukaemia cells (mice injected with 1×10^6 P388 leukaemia cells, 5 daily doses of 0.45 μg begun 24 hours after implantation) is recorded as 223%. Also, the “antimitotic activity, in words” value in test [3] was “more potent than Taxol, Vinblastine and Nocodazole”.

For the compound `COC(=O)Nc1nc2ccc(C(=O)c3cccs3)cc2[nH]1` [Nocodazole], in the test on MCF7 cells (half-maximal concentrations), the mitotic spindle morphology entry was “produced the same types of abnormal spindle as hemiasterlin A”. Moreover, in the test on MCF7 cells (high concentrations), the effect on microtubules result is on record as “microtubule depolymerisation in mitotic cells”.

In the case of `CC(=O)O[C@H]1C(=O)[C@@]2(C)[C@H]([C@H](OC(=O)c3ccccc3)[C@]3(O)C[C@H](OC(=O)[C@H](O)[C@@H](NC(=O)c4ccccc4)c4ccccc4)C(C)=C1C3(C)C)[C@]1(OC(C)=O)CO[C@@H]1C[C@@H]2O` [Taxol], the mitotic spindle morphology entry in the test on MCF7 cells (half-maximal concentrations) was “produced the same types of abnormal spindle as hemiasterlin A”. Besides, the effect on microtubules result with MCF7 cells (high concentrations) was “causing bundling of cytoplasmic microtubules in interphase cells and very dense multiple asters in mitotic cells”.

In the case of `CC[C@]1(O)C[C@@H]2CN(CCc3c([nH]c4ccccc34)[C@@](C(=O)OC)(c3cc4c(cc3OC)N(C)[C@H]3[C@@](O)(C(=O)OC)[C@H](OC(C)=O)[C@]5(CC)C=CCN6CC[C@]43[C@@H]65)C2)C1` [Vinblastine], the mitotic spindle morphology result with MCF7 cells (half-maximal concentrations) is “produced the same types of abnormal spindle as hemiasterlin A”. The effect on microtubules result in the test on MCF7 cells (high concentrations) is “microtubule depolymerisation in mitotic cells”.
